{"source": "patent US20240181068A1", "about": "“SELECTIVE NEUTRAL PH INHIBITOR OF CATHEPSIN B” (The Regents of the University of California, priority 2021, published 2024)", "key": {"[1]": {"biological_target": "T1, cathepsin H (Homo sapiens, UniProt P09668)", "T1 construct": "purchased R&D Systems 75116-CY-010", "T1 sequence (P09668 116-335 limits assumed, other chains not shown)": "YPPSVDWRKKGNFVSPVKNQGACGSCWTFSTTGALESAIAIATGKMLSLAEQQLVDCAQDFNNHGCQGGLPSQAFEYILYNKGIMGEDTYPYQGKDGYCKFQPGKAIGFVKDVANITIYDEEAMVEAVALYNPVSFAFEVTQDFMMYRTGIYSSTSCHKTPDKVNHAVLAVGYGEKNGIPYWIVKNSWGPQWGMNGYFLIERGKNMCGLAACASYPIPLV", "test": "Specificity of inhibitors: cathepsin H (Arg-AMC substrate)", "assay_type": "biochemical", "description": "(§1) Specificity of inhibitors for other cysteine cathepsin proteases. The effects of Z-Arg-Lys-AOMK and Z-Glu-Lys-AOMK on cathepsin V, L, K, S, X, H and C activities were assessed. IC50 values were calculated at pH 4.6 and pH 7.2 conditions, consisting of 40 mM citrate phosphate, 1 mM EDTA, 100 mM NaCl, and 5 mM DTT. The inhibitor concentrations ranged from 16.38 μM to 256 nM with 2-fold serial dilutions. […] Cathepsin V (0.04 ng/μL), cathepsin L (0.03 ng/μL), cathepsin K (0.10 ng/μL), cathepsin S (0.20 ng/uL) were assayed with 40 μM Z-Phe-Arg-AMC. Cathepsin X (0.20 ng/uL), cathepsin C (0.51 ng/uL) and cathepsin H (0.1 ng/μL) were assayed with 40 μM of MCA-Arg-Pro-Pro-Gly-Phe-Ser-Ala-Phe-Lys(Dnp)OH (SEQ ID NO: 2), Gly-Arg-AMC, and Arg-AMC, respectively. Activation of pro-cathepsin H to cathepsin H was conducted by incubation of cathepsin H (4.4 ng/μL) with cathepsin L (1.1 ng/μL) at RT for 2 hrs in activation buffer (20 mM citrate phosphate pH 6.0, 100 mM NaCl, and 5 mM DTT). Cathepsin C (13.78 ng/μL) was activated by incubation with cathepsin L (3.4 ng/μL) at RT for one hr in activation buffer (20 mM citrate phosphate, pH 6.0, 100 mM NaCl, 5 mM DTT). […] For all assays containing peptide-AMC substrates the fluorescent microplate reader settings were the same as outlined above for cathepsin B. For the cathepsin X assay, the plate reader was set to excitation 320 nm, emission 400 nm, gain 105, top optics and read height 1 mm. To convert RFU/s to picomol/min, 10 μM to 0.005 μM (2-fold serial dilution) of MCA-Arg-Pro-Pro-Gly-Phe-Ser-Ala-Phe-Lys(Dnp)OH (SEQ ID NO: 2) was fully hydrolyzed with excess cathepsin X and a standard curve was generated using the total fluorescence values calculated at each concentration."}, "[2]": {"biological_target": "T2, cathepsin L (Homo sapiens, UniProt P07711)", "T2 construct": "purchased R&D Systems 952-CY-010", "T2 sequence (P07711 114-333)": "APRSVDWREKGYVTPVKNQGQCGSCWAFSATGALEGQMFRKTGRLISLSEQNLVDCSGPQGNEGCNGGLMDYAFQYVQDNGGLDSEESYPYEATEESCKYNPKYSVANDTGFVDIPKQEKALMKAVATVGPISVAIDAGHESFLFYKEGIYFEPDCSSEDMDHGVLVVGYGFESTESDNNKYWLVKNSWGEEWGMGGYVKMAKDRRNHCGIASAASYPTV", "test": "Specificity of inhibitors: cathepsin L (Z-Phe-Arg-AMC substrate)", "assay_type": "biochemical", "description": "as §1"}, "[3]": {"biological_target": "T3, cathepsin S (Homo sapiens, UniProt P25774)", "T3 construct": "purchased R&D Systems 1183-CY-010", "T3 sequence (P25774 115-331)": "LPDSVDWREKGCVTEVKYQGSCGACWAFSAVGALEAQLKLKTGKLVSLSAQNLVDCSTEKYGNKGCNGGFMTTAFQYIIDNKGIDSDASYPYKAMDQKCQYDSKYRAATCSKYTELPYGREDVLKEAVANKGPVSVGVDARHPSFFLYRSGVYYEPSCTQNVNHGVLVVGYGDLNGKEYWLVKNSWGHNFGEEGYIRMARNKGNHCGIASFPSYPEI", "test": "Specificity of inhibitors: cathepsin S (Z-Phe-Arg-AMC substrate)", "assay_type": "biochemical", "description": "as §1"}, "[4]": {"biological_target": "T4, cathepsin B (Homo sapiens, UniProt P07858)", "T4 construct": "purchased R&D Systems 953-CY-010", "test": "Inhibition of peptide library cleavages characterized by MSP-MS", "assay_type": "biochemical", "conditions": "64 nM inhibitor", "description": "Cathepsin B cleavage site analysis by multiplex substrate profiling by mass spectrometry (MSP-MS). Cathepsin B activity (activated) was titrated with E64c to calculate the concentration of active cathepsin B. For MSP-MS assays, cathepsin B (0.1 ng/μL, activated) was incubated with a peptide library of 228 14-mer peptides, each at 0.5 μM peptide, in buffer consisting of 50 mM citrate phosphate of pH 7.2 or pH 4.6, 1 mM EDTA, 100 mM NaCl and 4 mM DTT (total volume of 46 μL). After incubation for […] at 25° C., 20 μL aliquots were removed and combined with 80 μL of 8 M urea. An inactivated cathepsin B control consisted of cathepsin B in assay buffer combined with 8 M urea for 60 minutes at 25° C. for denaturation, followed by addition of the peptide library. After incubation, samples were acidified by addition of 40 μL of 2% FA, desalted using C18 LTS Tips (Rainin), evaporated to dryness in a vacuum centrifuge, and stored at −70° C. Samples were resuspended in 20 μL of 0.1% FA (solvent A) and 1 μL was used for LC-MS/MS analysis. All MSP-MS conditions were conducted in quadruplicate assays.\nInhibitor inhibition of peptide cleavages characterized by MSP-MS. […]"}, "[5]": {"biological_target": "T5, cathepsin B in human neuroblastoma cells (SHSY5Y) (Homo sapiens, UniProt P07858)", "T5 construct": "endogenous in cells; host or cells: SH-SY5Y human neuroblastoma cells", "test": "Neuroblastoma cells incubated with inhibitors, then cathepsin B assay", "assay_type": "cell-based", "description": "Cathepsin B in human neuroblastoma cells treated with inhibitors. Neuroblastoma cells (human SHSY5Y) were grown in media consisting of 50% MEMalpha, 50% F12-K, 10% heat-inactivated FBS at 37° C. in an atmosphere of 95% air and 5% CO2. Firstly, cell homogenates were prepared by collection of cells in 0.32 M sucrose and freeze-thawing. Secondly, cells were incubated with Z-Arg-Lys-AOMK or CA-074Me for 6 hours at 37° C., and washed 3 times in phosphate-buffered saline and homogenates were prepared in 0.32 M sucrose with freeze-thawing. CA-074Me is a methyl ester form of the active CA-074 selective inhibitor of cathepsin B (70); CA-074Me penetrates the cell and is converted by intracellular esterases to CA-074.\nCathepsin B activity in the homogenates were monitored with Z-Arg-Arg-AMC substrate (60 μM) with buffer conditions of 40 mM citrate-phosphate, pH 5.5, 5 mM DTT, 1 mM EDTA, 100 mM NaCl, and 1.2% DMSO, followed by incubation at 37° C. for 30 minutes and reading of AMC fluorescence. CA-074-senstive activity was monitored to indicate cathepsin B activity, since CA-074 is a selective inhibitor of this enzyme (70). Protein content was measured in homogenates with the DC protein assay kit. Cathepsin B specific activity was calculated as nmol AMC/μg/min, and reported as the mean±SD (with analyses for statistical significance, p<0.05 by student's t-test)."}}, "note": "Entries after “also recorded” stand apart in the source; their conditions may differ.", "data": [{"smiles": "Cc1cccc(C)c1C(=O)OCC(=O)C(CCCCN)NC(=O)C(CCCNC(=N)N)NC(=O)OCc1ccccc1", "note": "(stereo not drawn) [Z-Arg-Lys-AOMK]", "values": [{"measurement": "IC50", "setting": "[1]; cathepsin H, pH 4.6", "value": "> 16", "unit": "µM"}, {"measurement": "IC50", "setting": "[1]; cathepsin H, pH 7.2", "value": "> 16", "unit": "µM"}, {"measurement": "inhibition at 16 µM", "setting": "[1]; cathepsin H, pH 7.2, 16,000 nM inhibitor", "value": 29, "unit": "%"}, {"measurement": "inhibition of cathepsin H", "setting": "[1]; pH 4.6, inhibitor at 16 μM", "value": "no inhibition"}, {"measurement": "inhibition of cathepsin H", "setting": "[1]; pH 7.2, inhibitor at 16 μM", "value": "minimally inhibited"}, {"measurement": "IC50", "setting": "[2]; cathepsin L, pH 4.6", "value": "> 16", "unit": "µM"}, {"measurement": "inhibition at 16 µM", "setting": "[2]; cathepsin L, pH 4.6, 16,000 nM inhibitor", "value": 32, "unit": "%"}, {"measurement": "inhibition of cathepsin L", "setting": "[2]; pH 4.6, inhibitor at 16 μM", "value": "minimal inhibition"}, {"measurement": "IC50", "setting": "[3]; cathepsin S, pH 4.6", "value": "> 16", "unit": "µM"}, {"measurement": "inhibition at 16 µM", "setting": "[3]; cathepsin S, pH 4.6, 16,000 nM inhibitor", "value": 13, "unit": "%"}, {"measurement": "inhibition of cathepsin S", "setting": "[3]; pH 4.6, inhibitor at 16 μM", "value": "minimal inhibition"}, {"measurement": "fold more potent for cathepsin B than cathepsin S", "setting": "[3]; pH 7.2, from IC50", "value": 110, "unit": "fold"}, {"measurement": "inhibition of cathepsin B cleavage of peptide library substrates", "setting": "[4]; pH 4.6", "value": "does not inhibit; also recorded: did not inhibit"}, {"measurement": "inhibition of cathepsin B cleavage of peptide library substrates", "setting": "[4]; pH 7.2, 1 hr incubation", "value": "inhibits; also recorded: completely inhibited"}, {"measurement": "inhibition of cellular cathepsin B activity", "setting": "[5]; cells incubated with 50 μM inhibitor for 6 hrs, washed, homogenate assayed with Z-Arg-Arg-AMC", "value": "completely inhibited"}, {"measurement": "cell permeability", "setting": "[5]; neuroblastoma cells, 50 μM, 6 hrs", "value": "cell permeable"}]}]}
